Columns and labels:
Format in all cases: in vivo, pig (Large-White x Landrace)
growing-fattening pig [1] = test: Carcass lean/fat ratio after long-term dietary supplementation of growing-fattening pigs; details: for carcasses' lean/fat ratio, value in brackets relative to group A (100): index, group A (2000 IU/kg D3) = 100; for carcasses' lean/fat ratio: pigs fed supplemented diet (2000 IU/kg D3 or 50 μg/kg 25-OH D3), mean ± SD of 20 determinations
Experimental: (§1) Fifty 28-d old Large-White x Landrace weaner piglets having an initial body weight of 7.9±0.74 kg were used. The animals were allocated into two equal groups (A and B) and housed in cages in sub-groups (two of 8 and one of 9 animals) in an environmentally controlled room. […] Room temperature was initially 27° C. and was lowered weekly by about 2° C. until 21-22° C. Environment humidity percentage throughout the experiment was 50%. The experiments were performed in the facilities of the Centre de Recherche en Nutrition Animate (CRNA), DSM Nutritional Products France, BP 170, 68305 Saint-Louis cedex, France. They have been performed according to the French legal regulations on experiments with live animals.
(§2) Each group of animals was fed either a basal diet with the addition of 2000 IU/kg of vitamin D3 (group A) or the basal diet, without vitamin D3, and supplemented with 50 μg/kg of 25-hydroxycholecalciferol (Rovimix® Hy•D® commercially available from DSM Nutritional Products) (group B).
(§3) At the end of the post-weaning phase the twenty heaviest animals of each group were used for the growing-fattening period. […] Room temperature was 21-22° C. and humidity percentage was 50%.
(§4) The pigs were fed for 87 days a diet supplemented either with 2000 IU/kg of vitamin D3 (group A, animals ingesting during the post-weaning phase 2000 U/kg) or with 50 μg/kg of 25-hydroxycholecalciferol (group B, animals ingesting during the post-weaning phase 50 μg/kg). The basal diet (Table 2) was formulated to meet the animals' requirements according to Henry et al. 1989 In: L'alimentation des animaux domestiques—pore, lapin, volailles INRA), 2ème édition, INRA, Paris, 49-76 and NRC, 1998. Nutrient requirements of swine, 10th revised edition, National Academic Press. Washington DC, U.S.A.
In the second mid-carcass lean and fat were measured at three different points with a caliper square tool. Muscular depth was measured after dissection of the ilio-spinalis muscle (longissimus dorsi) at the level of the 4th dorsal vertebrae. The sub-cutaneous back fat deposition was measured at the levels of the 4th dorsal and lumbar vertebras. These measures were used to estimate the carcasses' lcan/fat ratio.
(§5) Statistical treatment of the results involved the calculation of the mean and the standard deviation of the mean as well as a two-factor hierarchical analysis of variance at 95% confidence level.

growing-fattening pig [2] = test: Carcass cold yield after long-term dietary supplementation of growing-fattening pigs; details: for carcasses' cold yield, value in brackets relative to group A (100): index, group A (2000 IU/kg D3) = 100; for carcasses' cold yield: pigs fed supplemented diet (2000 IU/kg D3 or 50 μg/kg 25-OH D3), carcass weighed after 24 h at +4° C., mean ± SD of 20 determinations
Experimental: as §1, §2, §3, §4
At the end of the experiment, all animals were randomly divided into four different lots and assigned to one slaughter campaign: days 84th, 85th, 86th and 87th. Animals of each lot were fasted for 12 hours and weighed just before they were slaughtered after tranquilization and stunning. The carcasses were sawed longitudinally following the spinal canal and weighed after 24 hours storage at +4° C. to estimate the carcasses' cold yield.
as §5

[3] = system: ilio-spinalis (longissimus dorsi) muscle; test: Drip losses of the ilio-spinalis (longissimus dorsi) muscle; details: for Drip loss by water recovery / Drip loss by weight difference: ilio-spinalis muscle, mean ± SD of 20 determinations; for Drip loss by water recovery: 24 h storage at +4° C. in plastic bags; for Drip loss by weight difference: 24 h storage at +4° C.; for Drip loss by water recovery, value in brackets relative to group A (100) / Drip loss by weight difference, value in brackets relative to group A (100): index
Experimental: as §1, §2, §3, §4
(§6) In one of the mid-carcass, the entire ilio-spinalis muscle (longissimus dorsi) was dissected. Each muscle was weighed and pH was measured immediately and after 24 hours storage at +4° C. The muscles were individually conditioned into inflated plastic bags for water recovery during storage. Percentage of drip loses from muscles was estimated by weight difference and water recovery.
as §5

[4] = system: ilio-spinalis (longissimus dorsi) muscle; test: pH of the ilio-spinalis (longissimus dorsi) muscle at slaughter and after 24 h storage; details: for pH after 24 h / pH at slaughter: ilio-spinalis muscle, mean ± SD of 20 determinations; for pH after 24 h: after 24 hours storage at +4° C.; for pH at slaughter: measured immediately; for pH after 24 h, value in brackets relative to group A (100) / pH at slaughter, value in brackets relative to group A (100): index
Experimental: as §1, §2, §3, §4, §6, §5

[5] = dietary supplementation vs. vitamin D3 control group

| Compound | carcasses' lean/fat ratio, value in brackets relative to group A (100) (growing-fattening pig [1]) | carcasses' lean/fat ratio (growing-fattening pig [1]) | carcasses' cold yield, value in brackets relative to group A (100) (growing-fattening pig [2]) | carcasses' cold yield (growing-fattening pig [2]) | Drip loss by water recovery [3] | Drip loss by weight difference [3] | Drip loss by water recovery, value in brackets relative to group A (100) [3] | Drip loss by weight difference, value in brackets relative to group A (100) [3] | pH after 24 h [4] | pH at slaughter [4] | pH after 24 h, value in brackets relative to group A (100) [4] | pH at slaughter, value in brackets relative to group A (100) [4] | effect on the lean/fat ratio of the carcasses (in words) (growing-fattening pig [1]; [5]) | effect on the cold yield of the carcasses (in words) (growing-fattening pig [2]; [5]) | mass lost from muscular segments (in words) ([3]; vs. control group) | water volumes recovered from muscular segments (in words) ([3]; vs. control group) | pH values immediately after slaughter and after 24 hours storage compared to control group (in words) ([4]; ilio-spinalis muscle segments) |
| --- | --- | --- | --- | --- | --- | --- | --- | --- | --- | --- | --- | --- | --- | --- | --- | --- | --- |
| C=C1CC[C@H](O)C/C1=C/C=C1\CCC[C@]2(C)[C@@H]([C@H](C)CCCC(C)C)CC[C@@H]12 [D3, vitamin D3] | (100) | 68.42 ± 2.26^(1) % | (100) | 81.85 ± 0.76^(1) % of live weight | 0.78 ± 0.74^(1) % | 1.94 ± 0.85^(1) % | (100) | (100) | 5.49 ± 0.05^(1) | 5.85 ± 0.21^(1) | (100) | (100) | – | – | – | – | – |
| C=C1CC[C@H](O)C/C1=C/C=C1\CCC[C@]2(C)[C@@H]([C@H](C)CCCC(C)(C)O)CC[C@@H]12 [25-OH D3, 25-hydroxycholecalciferol] | (99) | 67.70 ± 2.99% | (99) | 81.11 ± 1.71 % of live weight | 0.45 ± 0.23% | 1.51 ± 0.28% | (58) | (78) | 5.51 ± 0.04 | 5.89 ± 0.16 | (100) | (101) | no positive effects | no positive effects | less mass was lost | clearly smaller water volumes were recovered | similar |
